The record followed here is PubChem BioAssay (NCI).

Structures are written as SMILES. Several values for one entry are separate records, joined by “and”; a condition that tells them apart may be missing. Equal entries are not always repeated.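 Briefly, cells in 96-well plates were exposed to five compound concentrations for 48 h, and endpoints were estimated by linear interpolation. The concentration for full growth arrest is given as TGI.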

What all share (test): growth of human tumour cells (NCI), 48 h
For test [1], the system named is MDA-N.
Test [2] relates to MDA-MB-435.
For test [3], the system named is ACHN renal.
In test [4] the test system is NCI-H23 lung.
Test [5] deals with SF-295 CNS.
Test [6] relates to PC-3 prostate.
The subject of test [7] is HS 578T breast.
Test [8] concerns BT-549 breast.
In test [9] the test system is OVCAR-3 ovarian.
In test [10] the test system is SK-MEL-5 melanoma.
The test system of test [11] is HT29 colon.

Regarding `CO[C@H]1O[C@@H]2CO[C@@H](c3ccccc3)O[C@H]2C[C@]12CCC/C=C\CO2`, the TGI in test [1] is 26.9 µM; in [2], 26.5 µM; in [3] it was 35 µM; in [4], 68.1 µM; in [5], over 75 µM; in test [6] it was 50.8 µM. Moreover, the TGI in test [7] came to 40 µM; in [8] it was 23.9 µM; in test [9], 24.6 µM; in test [10], 44.1 µM; in test [11] it was 40.5 µM.
As for `Fc1ccc(C(OCCN2CCC3CCC(C2)N3Cc2cc3ccccc3[nH]2)c2ccc(F)cc2)cc1` (configuration not stated), the TGI was determined as 3.1 µM in test [1]; 3.55 µM in [2]; 4.07 µM in test [3]; 3.05 µM in test [4]; 3.78 µM in [5]; 3.25 µM in test [6]. Besides, the TGI in test [7] is 4 µM; in [8], 5.08 µM; in test [9], 3.39 µM; in test [10], 3.11 µM; in test [11] it was 2.49 µM.
As for `O=C1c2ccccc2C(=O)N1c1ccc(OCCN2CCCCC2)cc1`, the TGI in test [1], in [2], in test [3], in test [4], in [5] and in [6] was over 100 µM in each case. Also, the TGI in test [7], in [8], in test [9], in [10] and in test [11] was over 100 µM throughout.
On to `CC(=O)OC[C@@]12C[C@H]3C(=O)C(C)(C)C[C@H]3[C@]1(C)[C@@H](OC(C)=O)[C@]1(O)[C@H]([C@@H](OC(=O)c3ccccc3)[C@@H](C)[C@H]1OC(C)=O)[C@H]2OC(C)=O`, for which the TGI in [1], in [2], in test [3], in [4], in test [5] and in [6] was over 20 µM each time. The TGI in test [7], in test [8], in test [9] and in [10] was over 20 µM each time.
For `COc1nc(=O)n(C2CC(N=[N+]=[N-])C(CO)O2)cc1C` (configuration not stated), the TGI in test [1], in test [2], in test [3], in test [4], in test [5] and in [6] was over 100 µM each time. The TGI in test [7], in [8], in test [9], in test [10] and in test [11] was over 100 µM in each case.
As to `CCCCCCCSCC(O)COC(c1ccccc1)(c1ccccc1)c1ccccc1` (configuration not stated), the TGI in [1] is over 100 µM; in test [2], over 100 µM; in [3] it was 76.3 µM; in test [4], 60.3 µM; in test [5], over 100 µM; in test [6], over 100 µM. Further, the TGI in test [7] is 50.1 µM; in [8], over 100 µM; in test [9], over 100 µM; in [10], 47.9 µM; in test [11], 68.5 µM.
On to `N#Cc1c(NC(=S)NCc2ccccc2)sc2c1CCN(N1CCc3c(sc(NC(=S)NCc4ccccc4)c3C#N)C1)C2`, for which the TGI in [1], in test [2], in [3], in [4], in test [5] and in test [6] was over 100 µM each time. For the same compound, the TGI in test [7], in [8], in test [9], in [10] and in [11] was over 100 µM each time.
`C#CCOC(=O)c1ccccc1OC(C)=O`: the TGI in [1], in test [2], in test [3], in test [4], in test [5] and in test [6] was over 100 µM in each case. Further, the TGI in test [7], in test [8] and in test [10] was over 100 µM in each case.
For the compound `CC12ON=C(c3ccccc3)N1C=CN1C(c3ccccc3)=NOC12` (configuration not stated), the TGI in test [1], in test [3], in [4], in [5], in test [6] and in test [7] was over 100 µM in each case. Further, the TGI in [8], in test [9] and in test [10] was over 100 µM throughout.
Consider `O=[N+]([O-])C1(C2([N+](=O)[O-])CCCC2)CCCC1`, for which the TGI in test [1], in test [2], in [4], in test [6], in test [7] and in test [8] was over 100 µM each time. Besides, the TGI in [9], in test [10] and in [11] was over 100 µM in each case.
`COc1cc2c(cc1OC)CCN=C2`: the TGI in [1], in test [2], in test [4], in [5], in test [6] and in test [7] was over 100 µM throughout. Moreover, the TGI in [8], in [9], in test [10] and in test [11] was over 100 µM throughout.
Take `Cc1cc2c(-c3ccccc3)cc(=O)[nH]c2cc1N`: the TGI in test [1], in [2], in test [3], in test [4], in [5] and in test [6] was over 100 µM throughout. Moreover, the TGI in test [8], in test [9], in [10] and in test [11] was over 100 µM each time.
As for `NC(CCCCNc1ccn(C2OC(CO)C(O)C2O)c(=O)n1)C(=O)O` (configuration not stated), the TGI in test [1], in [2], in [3], in [5], in test [6] and in test [7] was over 100 µM in each case. Besides, the TGI in [8], in test [9] and in [10] was over 100 µM throughout.
As to `C[N+]1(C)CN(c2ccccc2)C2(CCN(CCCC(=O)c3cccs3)CC2)C1=O`, the TGI in test [1], in test [2], in test [3], in [4], in test [5] and in test [6] was over 100 µM in each case. In addition, the TGI in test [7] was over 100 µM; in [9], over 100 µM; in test [10] it was 77.1 µM; in [11] it was over 100 µM.
Turning to `O=C(NC(Nc1ccc(F)c(Cl)c1)(C(F)(F)F)C(F)(F)F)C(C(F)(F)F)C(F)(F)F`, the TGI in test [1] was over 100 µM; in test [2] it was over 100 µM; in test [3], 36.9 µM; in test [4], 67.1 µM; in test [5], over 100 µM; in test [6], over 100 µM. For the same compound, the TGI is 64.7 µM in test [7], over 100 µM in test [9], 81.3 µM in test [10] and 67.9 µM in [11].
For `Nc1c(C(=O)c2ccccc2)[nH]c(NCc2ccccc2)c1C(=S)Nc1ccccc1`, the TGI in test [1], in test [2], in [3], in test [4], in [5] and in test [7] was over 100 µM throughout. In addition, the TGI in test [8], in [9], in test [10] and in test [11] was over 100 µM throughout.
Regarding `O=C1c2cc(CCl)sc2C(=O)c2ccsc21`, the TGI in [1] came to 0.0343 µM; in [2] it was 0.0339 µM; in test [3] it was 1.25 µM; in [4], 0.136 µM; in test [5] it was 0.245 µM; in test [6], 0.839 µM. Also, the TGI in test [7] was 0.498 µM; in test [9], 0.52 µM; in test [10], 0.0821 µM; in test [11], 2.56 µM.
Regarding `CC(C)(C)C=C=C(C(C)(C)C)P(=O)(O)O`, the TGI in test [1], in test [2], in [3], in [4], in test [5] and in test [6] was over 100 µM each time. The TGI in test [7], in test [9], in [10] and in test [11] was over 100 µM throughout.
For `COC/C=C\[C@@]1(O)CCCC[C@@H]1CC(OC)OC`, the TGI is over 100 µM in [1]; over 76.1 µM in test [2]; 98.7 µM in test [4]; 97.3 µM in test [5]; over 100 µM in test [6]; over 100 µM in test [7]. The TGI in test [8], in [9], in test [10] and in [11] was over 100 µM each time.
With `CC(C)[Si](OC1=CCCCCC12C(=O)N(C)c1ccccc12)(C(C)C)C(C)C` (configuration not stated), the TGI in test [1] is 79.7 µM; in [2], 67.3 µM; in test [3], 35.9 µM; in [4], 46.1 µM; in test [5] it was 28.6 µM; in test [6] it was over 100 µM. Further, the TGI in test [7] was found to be 61.6 µM; in test [9], 31.8 µM; in test [10], 33.8 µM; in [11] it was 41.1 µM.
Regarding `N#Cc1c(-c2ccc(Cl)cc2)c(C#N)c(=O)n(NS(=O)(=O)c2ccccc2)c1-c1ccccc1`, the TGI in test [1], in test [2], in test [3], in [5], in [6] and in test [8] was over 25 µM each time. In test [10], this compound returned a TGI of over 25 µM.
Regarding `COC(=O)C1=C(O)C(C(=O)OC)[C@]2(O)[C@H](C(=O)OC)[C@H]1C[C@@H](c1ccc(OC)cc1)[C@H]2C(=O)OC` (some centres not stated), the TGI in test [1] was 40.7 µM; in test [2], 29 µM; in test [3] it was 37.6 µM; in [4], over 100 µM; in test [5] it was over 100 µM; in test [7], over 100 µM. The values for the TGI in [8], in test [10] and in test [11] were over 100 µM, 55.8 µM and 97.7 µM, respectively.
`CSCCCCCCCCCCOc1ccc(C=C2C(=C(C#N)C#N)c3ccccc3C2=C(C#N)C#N)cc1`: the TGI came to 38.3 µM in test [1]; 32.9 µM in [2]; 29.5 µM in test [3]; 48.9 µM in test [4]; 34 µM in test [5]; 31.4 µM in test [6]. The TGI stood at 44.6 µM in test [7], 30 µM in [9], 31.9 µM in [10] and 31 µM in test [11].
For `CC(=O)c1cccc(NC2C(N)C(NC(=O)N(C)C)(C(C)O)C(C)(O)C2(O)COC(=O)c2c(C)cccc2O)c1` (configuration not stated), the TGI was 0.0135 µM in test [1]; 0.0157 µM in test [2]; 0.334 µM and 0.539 µM in test [3]; 0.164 µM and 0.231 µM in [5]; 0.0122 µM in test [7]; 0.012 µM in [8]. In addition, the TGI was 0.262 µM in test [9]; 0.0227 µM in test [10]; 1.08 µM and 0.113 µM in test [11].
With `Cc1ccc(/C=N/Nc2ncccn2)s1`, the TGI in test [1], in test [2], in [3], in test [4], in test [5] and in [6] was over 100 µM in each case. Besides, the TGI in [7], in test [9], in test [10] and in test [11] was over 100 µM in each case.
`S=C1C=C(c2ccccc2)Sc2ccccc2N1`: the TGI in [1], in test [3], in test [4], in [5], in test [6] and in test [7] was over 100 µM in each case. Further, the TGI in test [8], in [9], in test [10] and in test [11] was over 100 µM each time.
On to `C[C@@H]1C(O)CC[C@H](C)C12CC=CC2=O` (some centres not stated), for which the TGI in test [1], in test [2], in test [3], in test [4], in [5] and in test [6] was over 100 µM in each case. For the same compound, the TGI in test [7], in test [9], in test [10] and in [11] was over 100 µM throughout.
